From patent US11548900B2, “Oxazino-quinazoline and oxazino-quinoline type compound, preparation method and uses thereof” (BEIJING SCITECH-MQ PHARMACEUTICALS LIMITED, priority 2018, dated 2023)

Key:
[1] = target: HER2 kinase (Homo sapiens (Human), UniProt P04626); experiment: Inhibition of HER2 kinase activity (ULight-labeled PolyGT substrate); format: biochemical; settings: HER2 kinase 10 nM, ATP 10 μM, 2 hours
In short: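 Eleven-point 3-fold dilutions (0.042 nM–2.5 μM final, 1% DMSO) tested in duplicate against 10 nM HER2 with 100 nM ULight-labelled PolyGT and 10 μM ATP. Reaction ran 2 h at RT after 5 min pre-incubation; 665/615 nm TR-FRET ratio used to derive inhibition and IC50.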

[2] = target: EGFR kinase (Homo sapiens (Human), UniProt P00533); experiment: Inhibition of EGFR kinase activity (ULight-labeled JAK-1 (Tyr1023) peptide substrate); format: biochemical; settings: EGFR kinase 0.35 nM, ATP 150 μM, 2 hours
Chain of EGFR kinase (P00533 25-1210): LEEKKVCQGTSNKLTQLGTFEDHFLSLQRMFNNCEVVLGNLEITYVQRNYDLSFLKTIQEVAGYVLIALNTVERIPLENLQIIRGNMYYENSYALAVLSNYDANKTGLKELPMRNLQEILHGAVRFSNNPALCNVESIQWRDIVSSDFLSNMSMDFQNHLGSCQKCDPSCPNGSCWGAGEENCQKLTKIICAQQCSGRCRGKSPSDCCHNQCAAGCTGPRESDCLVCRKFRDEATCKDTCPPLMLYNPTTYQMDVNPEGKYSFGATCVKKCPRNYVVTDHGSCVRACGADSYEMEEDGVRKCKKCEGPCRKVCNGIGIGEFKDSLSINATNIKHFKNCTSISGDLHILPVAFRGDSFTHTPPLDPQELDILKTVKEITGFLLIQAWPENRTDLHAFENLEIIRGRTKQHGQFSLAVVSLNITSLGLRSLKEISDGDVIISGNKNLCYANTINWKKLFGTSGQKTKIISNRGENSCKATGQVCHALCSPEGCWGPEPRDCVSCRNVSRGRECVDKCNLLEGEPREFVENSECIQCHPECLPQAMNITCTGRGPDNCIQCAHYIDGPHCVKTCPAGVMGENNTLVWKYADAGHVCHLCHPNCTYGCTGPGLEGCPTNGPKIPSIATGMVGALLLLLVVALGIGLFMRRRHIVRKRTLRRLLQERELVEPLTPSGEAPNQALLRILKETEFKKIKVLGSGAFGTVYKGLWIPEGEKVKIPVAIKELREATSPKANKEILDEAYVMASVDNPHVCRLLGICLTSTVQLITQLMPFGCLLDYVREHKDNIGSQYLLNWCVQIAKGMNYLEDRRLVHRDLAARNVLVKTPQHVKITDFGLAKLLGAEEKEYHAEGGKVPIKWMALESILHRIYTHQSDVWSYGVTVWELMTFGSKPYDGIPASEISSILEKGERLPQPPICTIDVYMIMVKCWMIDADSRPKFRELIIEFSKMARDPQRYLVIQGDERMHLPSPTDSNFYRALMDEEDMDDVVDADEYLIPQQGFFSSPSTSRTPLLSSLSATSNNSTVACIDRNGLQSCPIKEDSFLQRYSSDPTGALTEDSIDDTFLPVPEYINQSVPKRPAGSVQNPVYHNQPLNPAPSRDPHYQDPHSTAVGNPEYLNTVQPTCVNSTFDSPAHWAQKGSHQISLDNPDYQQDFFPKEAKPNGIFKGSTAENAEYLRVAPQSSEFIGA
In short: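 TR-FRET kinase assay: 0.35 nM EGFR, 150 μM ATP, 100 nM substrate, 2 h at room temperature in the dark after 5 min enzyme-compound preincubation, 1% DMSO. Compounds tested as 11-point 3-fold series, 2.5 μM to 0.042 nM final, duplicate; IC50 from 665/615 nm ratio-based inhibition.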

[3] = system: BT474 cells; experiment: Inhibition of cell proliferation, BT474 (CCK-8, 72 h); format: cell-based; settings: Homo sapiens, BT-474, 72 h incubation
In short: (§1)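 BT474 and HCC827 seeded at 10,000 and 3000 cells/well respectively, cultured overnight, then exposed to 10-point 3-fold compound dilutions (top stock 10 mM; 0.25% DMSO final) for 72 h. Viability by CCK-8, OD450; survival normalised to untreated and cell-free blanks, IC50 from curve fit.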

[4] = system: HCC827 cells; experiment: Inhibition of cell proliferation, HCC827 (CCK-8, 72 h); format: cell-based; settings: Homo sapiens, 72 h incubation
In short: as §1

Chain of HER2 kinase (P04626 23-1255): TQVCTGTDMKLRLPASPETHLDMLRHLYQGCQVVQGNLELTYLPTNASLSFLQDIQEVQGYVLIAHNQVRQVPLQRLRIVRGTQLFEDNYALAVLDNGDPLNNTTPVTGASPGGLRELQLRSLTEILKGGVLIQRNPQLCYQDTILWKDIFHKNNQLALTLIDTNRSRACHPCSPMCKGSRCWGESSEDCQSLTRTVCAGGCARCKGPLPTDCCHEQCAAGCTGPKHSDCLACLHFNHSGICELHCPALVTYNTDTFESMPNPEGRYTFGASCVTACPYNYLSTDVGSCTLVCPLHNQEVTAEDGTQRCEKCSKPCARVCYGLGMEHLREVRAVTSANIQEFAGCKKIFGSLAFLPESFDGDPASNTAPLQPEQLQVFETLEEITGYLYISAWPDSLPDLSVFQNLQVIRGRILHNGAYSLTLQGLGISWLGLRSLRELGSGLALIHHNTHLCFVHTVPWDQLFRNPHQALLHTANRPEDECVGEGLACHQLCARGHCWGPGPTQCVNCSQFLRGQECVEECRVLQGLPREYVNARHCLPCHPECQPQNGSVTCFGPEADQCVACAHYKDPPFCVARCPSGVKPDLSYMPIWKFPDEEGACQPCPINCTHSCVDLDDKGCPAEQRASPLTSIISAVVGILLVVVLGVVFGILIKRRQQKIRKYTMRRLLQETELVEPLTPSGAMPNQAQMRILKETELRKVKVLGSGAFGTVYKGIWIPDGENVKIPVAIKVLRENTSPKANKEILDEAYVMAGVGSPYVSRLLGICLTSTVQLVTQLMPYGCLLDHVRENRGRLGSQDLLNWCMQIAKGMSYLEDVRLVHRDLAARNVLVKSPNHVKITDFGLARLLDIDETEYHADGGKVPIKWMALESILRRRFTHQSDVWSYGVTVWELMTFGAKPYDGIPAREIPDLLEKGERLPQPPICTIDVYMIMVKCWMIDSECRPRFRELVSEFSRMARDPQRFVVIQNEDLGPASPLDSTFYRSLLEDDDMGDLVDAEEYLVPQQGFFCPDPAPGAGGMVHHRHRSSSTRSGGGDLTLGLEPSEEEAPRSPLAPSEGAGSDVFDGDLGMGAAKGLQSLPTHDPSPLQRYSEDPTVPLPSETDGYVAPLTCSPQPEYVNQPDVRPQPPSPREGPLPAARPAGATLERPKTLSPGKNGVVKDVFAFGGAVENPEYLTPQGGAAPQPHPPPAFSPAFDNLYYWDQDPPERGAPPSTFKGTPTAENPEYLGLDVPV

Row | SMILES | IC50 [1] | IC50 [2] | IC50 [3] | IC50 [4]
1 | CN(C)C/C=C/C(=O)N1CCOc2c1ccc1ncnc(Nc3ccc(OCc4cccc(Cl)c4)cc3)c21 [Example 83, (E)-1-(10-((4-((3-chlorobenzyl)oxy)phenyl)amino)-2,3-dihydro-4H-[1,4]oxazino[2,3-f]quinazolin-4-yl)-4-(dimethylamino)but-2-en-1-one] | ≤ 0.05 µM | ≤ 0.05 µM | ≤ 0.05 µM | 0.5 to 5 µM
2 | CCN(CC)C/C=C/C(=O)N1CCOc2c1ccc1ncnc(Nc3ccc(Oc4ccccc4)cc3)c21 [Example 92, (E)-4-(diethylamino)-1-(10-((4-phenoxyphenyl)amino)-2,3-dihydro-4H-[1,4]oxazino[2,3-f]quinazolin-4-yl)but-2-en-1-one] | ≤ 0.05 µM | ≤ 0.05 µM | ≤ 0.05 µM | 0.5 to 5 µM
3 | O=C(/C=C/CN1CCOCC1)N1CCOc2c1ccc1ncnc(Nc3ccc(Oc4ccccc4)cc3)c21 [Example 94, (E)-4-morpholino-1-(10-((4-phenoxyphenyl)amino)-2,3-dihydro-4H-[1,4]oxazino[2,3-f]quinazolin-4-yl)but-2-en-1-one] | ≤ 0.05 µM | ≤ 0.05 µM | ≤ 0.05 µM | 0.5 to 5 µM
4 | O=C(/C=C/CN1CCOCC1)N1CCOc2c1ccc1ncnc(Nc3ccc(OCc4cccc(F)c4)c(Cl)c3)c21 [Example 96, (E)-1-(10-((3-chloro-4-((3-fluorobenzyl)oxy)phenyl)amino)-2,3-dihydro-4H-[1,4]oxazino[2,3-f]quinazolin-4-yl)-4-morpholinobut-2-en-1-one] | ≤ 0.05 µM | ≤ 0.05 µM | ≤ 0.05 µM | 0.05 to 0.5 µM
5 | O=C(/C=C/CN1CCCC1)N1CCOc2c1ccc1ncnc(Nc3ccc(OCc4ccccn4)c(Cl)c3)c21 [Example 106, (E)-1-(10-((3-chloro-4-(pyridin-2-ylmethoxy)phenyl)amino)-2,3-dihydro-4H-[1,4]oxazino[2,3-f]quinazolin-4-yl)-4-(pyrrolidin-1-yl)but-2-en-1-one] | ≤ 0.05 µM | ≤ 0.05 µM | ≤ 0.05 µM | 0.05 to 0.5 µM
6 | CC(=O)N1CCN(C/C=C/C(=O)N2CCOc3c2ccc2ncnc(Nc4ccc(OCc5ccccn5)c(Cl)c4)c32)CC1 [Example 108, (E)-4-(4-acetylpiperazin-1-yl)-1-(10-((3-chloro-4-(pyridin-2-ylmethoxy)phenyl)amino)-2,3-dihydro-4H-[1,4]oxazino[2,3-f]quinazolin-4-yl)but-2-en-1-one] | ≤ 0.05 µM | ≤ 0.05 µM | ≤ 0.05 µM | 0.05 to 0.5 µM
7 | CN(C/C=C/C(=O)N1CCOc2c1ccc1ncnc(Nc3ccc(OCc4ccccn4)c(Cl)c3)c21)C1CCC1 [Example 110, (E)-1-(10-((3-chloro-4-(pyridin-2-ylmethoxy)phenyl)amino)-2,3-dihydro-4H-[1,4]oxazino[2,3-f]quinazolin-4-yl)-4-(cyclobutyl(methyl)amino)but-2-en-1-one] | ≤ 0.05 µM | ≤ 0.05 µM | ≤ 0.05 µM | 0.05 to 0.5 µM

More lines, now with the values ahead:

Row | IC50 [1] | IC50 [2] | IC50 [3] | IC50 [4] | SMILES
8 | ≤ 0.05 µM | ≤ 0.05 µM | ≤ 0.05 µM | 0.5 to 5 µM | O=C(/C=C/CN1CCCC1)N1CCOc2c1ccc1ncnc(Nc3ccc(Oc4ccccc4)cc3)c21 [Example 91, (E)-1-(10-((4-phenoxyphenyl)amino)-2,3-dihydro-4H-[1,4]oxazino[2,3-f]quinazolin-4-yl)-4-(pyrrolidin-1-yl)but-2-en-1-one]
9 | ≤ 0.05 µM | ≤ 0.05 µM | ≤ 0.05 µM | 0.05 to 0.5 µM | O=C(/C=C/CN1CCCCC1)N1CCOc2c1ccc1ncnc(Nc3ccc(Oc4ccccc4)cc3)c21 [Example 93, (E)-1-(10-((4-phenoxyphenyl)amino)-2,3-dihydro-4H-[1,4]oxazino[2,3-f]quinazolin-4-yl)-4-(piperidin-1-yl)but-2-en-1-one]
10 | ≤ 0.05 µM | ≤ 0.05 µM | ≤ 0.05 µM | 0.05 to 0.5 µM | CN1CCN(C/C=C/C(=O)N2CCOc3c2ccc2ncnc(Nc4ccc(Oc5ccccc5)cc4)c32)CC1 [Example 95, (E)-4-(4-methylpiperazin-1-yl)-1-(10-((4-phenoxyphenyl)amino)-2,3-dihydro-4H-[1,4]oxazino[2,3-f]quinazolin-4-yl)but-2-en-1-one]
11 | ≤ 0.05 µM | ≤ 0.05 µM | ≤ 0.05 µM | 0.05 to 0.5 µM | CN1CCN(C/C=C/C(=O)N2CCOc3c2ccc2ncnc(Nc4ccc(OCc5ccccn5)c(Cl)c4)c32)CC1 [Example 104, (E)-1-(10-((3-chloro-4-(pyridin-2-ylmethoxy)phenyl)amino)-2,3-dihydro-4H-[1,4]oxazino[2,3-f]quinazolin-4-yl)-4-(4-methylpiperazin-1-yl)but-2-en-1-one]
12 | ≤ 0.05 µM | ≤ 0.05 µM | ≤ 0.05 µM | 0.05 to 0.5 µM | CCN(CC)C/C=C/C(=O)N1CCOc2c1ccc1ncnc(Nc3ccc(OCc4ccccn4)c(Cl)c3)c21 [Example 105, (E)-1-(10-((3-chloro-4-(pyridin-2-ylmethoxy)phenyl)amino)-2,3-dihydro-4H-[1,4]oxazino[2,3-f]quinazolin-4-yl)-4-(diethylamino)but-2-en-1-one]
13 | ≤ 0.05 µM | ≤ 0.05 µM | ≤ 0.05 µM | 0.5 to 5 µM | O=C(/C=C/CN1CCCCC1)N1CCOc2c1ccc1ncnc(Nc3ccc(OCc4ccccn4)c(Cl)c3)c21 [Example 107, (E)-1-(10-((3-chloro-4-(pyridin-2-ylmethoxy)phenyl)amino)-2,3-dihydro-4H-[1,4]oxazino[2,3-f]quinazolin-4-yl)-4-(piperidin-1-yl)but-2-en-1-one]
14 | ≤ 0.05 µM | ≤ 0.05 µM | ≤ 0.05 µM | 0.5 to 5 µM | CC(C)N(C)C/C=C/C(=O)N1CCOc2c1ccc1ncnc(Nc3ccc(OCc4ccccn4)c(Cl)c3)c21 [Example 111, (E)-1-(10-((3-chloro-4-(pyridin-2-ylmethoxy)phenyl)amino)-2,3-dihydro-4H-[1,4]oxazino[2,3-f]quinazolin-4-yl)-4-(isopropyl(methyl)amino)but-2-en-1-one]
